Literature values, collected in patent publication US20070232537A1, “INTRANASAL PYY FORMULATIONS WITH IMPROVED TRANSMUCOSAL PHARMACOKINETICS” (Nastech Pharmaceutical Company Inc., priority 2005, published 2007).

Legend:
[1] = anesthetized rats; increased from 7.5
[2] = aqueous solution at physiologic pH

## 2-alkyl-4-hydroxyquinolines [pyo compound]
Ciliary motility
  concentration producing ciliostasis / inhibiting ciliary motility: 50 µg/mL

## CC(=O)N[C@@H](CS)C(=O)O [N-acetyl-L-cysteine]
[1]
  nasal bioavailability of human growth hormone: 12.2%

## CC(C)CC(N)B(O)O (stereo not drawn) [boro-leucine]
aminopeptidases
  times more effective in enzyme inhibition than bestatin: more than 100 times
  times more effective in enzyme inhibition than puromycin: more than 1000 times

## CCN(CC)/[N+]([O-])=N/O.CCNCC [diethylamine/NO]
[2]
  NO release rate (time): < 3 min

## NCCN(CCN)/[N+]([O-])=N/O [diethylenetriamine/NO]
[2]
  NO release rate (time): approximately 20 hours
